# From PubChem BioAssay AID816 (SRMLSC, 2007)
# Activity calls are given as the source filed them. How the calls were made is not given here.
# System: S. cerevisiae GAL1 promoter reporter activation counterscreen
# Test: yeast Gal1p promoter activation – S. cerevisiae, artefact control for yeast lifespan extension project (AID 816);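 further: yeast growth read after 24 h of incubation with compounds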
row,SMILES,EC50
1,CCOc1ccc(/C=C2/C(=O)NC(=O)N(CCc3ccc(F)cc3)C2=O)cc1,> 40 µM (inactive)
2,O=C(/C(=C/O)N=Nc1ccc(Cl)cc1)c1ccncc1,> 40 µM (inactive)
3,O=[N+]([O-])c1cc2oc3c(c2c(C=NCc2ccccc2)c1O)CCCC3,> 40 µM (inactive)
4,O=C(CCc1ccccc1)NCCCN1CCOCC1,> 40 µM (inactive)
5,CCN(CC)Cc1c(O)c(Cl)cc2c(C)c(C)c(=O)oc12,> 40 µM (inactive)
6,O=S(=O)(ON(c1ccccc1)S(=O)(=O)c1ccccc1)c1ccccc1,> 40 µM (inactive)
7,CCCC(=O)C1C(=O)CC(CC(C)SCC)CC1=O (stereo unspecified),> 40 µM (inactive)
8,COC(=O)CC1=NN(c2ccccc2)C(=O)/C1=C\c1ccc(OC)cc1,> 40 µM (inactive)
9,O=C(CS(=O)c1ccc(C(F)(F)F)cc1[N+](=O)[O-])Oc1ccccc1 (stereo unspecified),> 40 µM (inactive)
10,O=C(NNC1=Nc2cccc3cccc1c23)c1ccccc1Br,> 40 µM (inactive)
11,CCOC(=O)c1c(C)oc2c1c(C(c1cccnc1)N1CCCCC1)c(O)c1ccccc12 (stereo unspecified),> 40 µM (inactive)
12,CCn1cc(C(=O)O)c(=O)c2ccc(C)nc21,> 40 µM (inactive)
13,CC(=O)Nc1nc(C)c(Oc2ccccc2)c(=O)[nH]1,> 40 µM (inactive)
14,COn1c(SC2CCCCC2)nc2ccccc2c1=O,> 40 µM (inactive)
15,CCCCn1c(=O)c(C(=O)Nc2cnccn2)c(O)c2ccccc21,> 40 µM (inactive)
16,O=C(Nc1scc(-c2cccs2)c1C(=O)O)c1cccs1,> 40 µM (inactive)
17,Cc1ccccc1Oc1cc(-n2ncc(Cl)c(Cl)c2=O)ncn1,> 40 µM (inactive)
18,CCOC(=O)CCS(=O)(=O)c1nc(-c2ccccc2)cc(C(F)(F)F)n1,> 40 µM (inactive)
19,CC1(C)Cc2ccccc2-c2nnc(SCC(=O)Nc3ccc4c(c3)OCO4)n21,> 40 µM (inactive)
20,CCOC(=O)/C(=C\c1cn(C)c2ccccc12)[N+](=O)[O-],> 40 µM (inactive)
21,CCOC(=O)COc1ccccc1/C=C\[N+](=O)[O-],> 40 µM (inactive)
22,CC(=NCCc1c(C)[nH]c2ccc(C)cc12)C1=C(O)CC(c2ccccc2)CC1=O (stereo unspecified),> 40 µM (inactive)
23,COc1ccc(C(=O)Nc2ccc(OCc3ccccc3)cc2)cc1[N+](=O)[O-],> 40 µM (inactive)
24,CN(C)/C=C(/C(=O)c1ccc(Cl)cc1Cl)S(=O)(=O)c1ccc(Cl)cc1,> 40 µM (inactive)
25,O=C(Nc1nc2ccccc2n1CCN1CCOCC1)c1cn(-c2ccccc2)nc1-c1ccccc1,> 40 µM (inactive)
26,CCOC(=O)Cc1csc(NC(=O)c2c(O)c3ccccc3n(CC(C)C)c2=O)n1,> 40 µM (inactive)

row,SMILES,EC50
1,CS(=O)(=O)Oc1ccc(Br)cc1/C=C1/N=C(c2ccco2)OC1=O,> 40 µM (inactive)
2,O=C1CC(c2ccccc2)CC(O)=C1C=NCCN1CCNCC1 (stereo unspecified),> 40 µM (inactive)
3,O=C(/C=C/c1ccccc1)C1C(=O)c2ccccc2C1=O,> 40 µM (inactive)
4,CCCCSc1[nH]c(=O)c(C(=O)OCC)cc1C#N,> 40 µM (inactive)
5,C=CCN(CC=C)S(=O)(=O)c1ccc2nc(NC(=O)C(C)C)sc2c1,> 40 µM (inactive)
6,COc1ccc(NCc2nc3ccccc3n2CCOc2ccccc2)cc1,> 40 µM (inactive)
7,O=C1C=CC2C(c3ccc4c(c3)OCO4)CC1N2Cc1ccccc1 (stereo unspecified),> 40 µM (inactive)
8,CCCCCSc1nc2c(c(=O)[nH]c(=O)n2C)n1C,> 40 µM (inactive)
9,O=C(Nc1scc(-c2ccc(F)cc2)c1C(=O)O)c1ccco1,> 40 µM (inactive)
10,O=C1Nc2ccccc2C12OCC1(CO2)COC2(OC1)C(=O)Nc1ccccc12 (stereo unspecified),> 40 µM (inactive)
11,COc1ccc(C2CC23N=C(c2ccccc2)OC3=O)cc1 (stereo unspecified),> 40 µM (inactive)
12,COc1ccc(-c2cc(C(F)(F)F)nc(S(C)(=O)=O)n2)cc1OC,> 40 µM (inactive)
13,COc1ccc(NC(=O)/C(Cl)=C(/Cl)S(=O)Cc2ccc(C)cc2)cn1 (stereo unspecified),> 40 µM (inactive)
14,CCNCCNC(=O)c1c(O)c2cccc3c2n(c1=O)CCC3,> 40 µM (inactive)
15,Cc1ccc(OCC(=O)c2c(O)c3ccccc3oc2=O)cc1C,> 40 µM (inactive)
16,CN=C(SCc1cc2c(cc1Cl)OCO2)c1c(O)n(C)c(=O)n(C)c1=O,> 40 µM (inactive)
17,CCCN1C(=O)/C(=C/c2ccncc2)SC1=S,> 40 µM (inactive)
18,Cc1ccnc(N=Cc2c(O)ccc3oc4c(c23)CCCC4)c1,> 40 µM (inactive)
19,CS(=O)(=O)c1nc(-c2ccccc2)cc(C(F)(F)F)n1,> 40 µM (inactive)
20,COC(=O)c1sc2ncn(-n3c(C)ccc3C)c(=O)c2c1C,> 40 µM (inactive)
21,CC(C)c1ccc2occ(-c3nn[nH]n3)c(=O)c2c1,> 40 µM (inactive)
22,N#Cc1cc(C(=O)c2cc(F)ccc2O)cn(-c2nccs2)c1=O,> 40 µM (inactive)
23,CCc1ccc2c(c1)CCCN2C(=O)c1ccccc1C(=O)O,> 40 µM (inactive)
24,CCCCn1c(/N=C/c2ccccc2NS(=O)(=O)c2ccc(C)cc2)nc2ccccc21,> 40 µM (inactive)
25,COCCCNC(CC(=O)Nc1ccc(OC)cc1OC)C(=O)O (stereo unspecified),> 40 µM (inactive)
